Experiments:
[1] = test system: Ephx1; assay: Ephx1 gene expression by qPCR after CL316,243 treatment; type: in vivo; conditions: mice, daily 1 mg/kg intraperitoneally for 10 days
Method: (§1) Total RNA was extracted from tissue with Trizol and purified using a spin column kit (Zymo Research). RNA (500 ng-1 μg) was reverse transcribed with a high-capacity complementary DNA (cDNA) reverse transcription kit (Applied Biosystems). Real-time PCR was performed in mouse tissues starting with 10 ng of cDNA and forward and reverse oligonucleotide primers (300 nM each) in a final volume of 10 μl with SYBR green PCR Master Mix (Roche). Fluorescence was determined and analyzed in an ABI Prism 7900 sequence detection system (Applied Biosystems). Acidic ribosomal phosphoprotein P0 (ARBP) expression was used to normalize gene expression.

[2] = test system: Ephx2; assay: Ephx2 gene expression by qPCR after CL316,243 treatment; type: in vivo; conditions: mice, daily 1 mg/kg intraperitoneally for 10 days
Method: as §1

[3] = test system: mature brown adipocytes; assay: In vitro fatty acid uptake (FFA-SS-Luc) in brown adipocytes constitutively expressing luciferase; type: cell-based, mice; conditions: data not shown
Method: Stromal vascular cells were isolated from interscapular brown adipose tissue dissected from TgLuc mice (Stock no. 008450) obtained from The Jackson Laboratory. Cells were immortalized and differentiated into adipocytes in vitro according to the WT-1 protocol (Tseng, Y. H. et al., Mol. Cell Biol. 24, 1918-1929 (2004)). After 1 hour of serum starvation, mature adipocytes were treated with 1 μM 12,13-diHOME or methyl acetate vehicle in 0.1% w/v BSA in PBS for 15 minutes. After this treatment, cells were incubated with 10 μm FFA-SS-Luc (Intrace Medical) and imaged using the IVIS Spectrum CT using sequential 30 s exposures for 1 hour. Data was analyzed using Living Image Software and movies were assembled from individual images using ImageJ. All cultures were confirmed to be Mycoplasma free.

[4] = Acute BAT activation, serum 12,13-diHOME by LC-MS/MS; type: in vivo; conditions: mice treated for 30 minutes
Method: All lipid standards were purchased from Cayman Chemical Company, Avanti Polar Lipids, or Santa Cruz Biotechnology, Inc. C18SPE cartridges were purchased from Biotage. All solvents are of HPLC or LC-MS/MS grade and were acquired from Sigma-Aldrich, Fisher Scientific, or VWR International. Tissue samples were homogenized in 0.1×PBS in Omni homogenizing tubes with ceramic beads at 4° C. Aliquots of 100 μL serum or 1 mg protein of homogenized tissue (measured by BCA) were taken, depending on the experiment. A mixture of deuterium-labeled internal standards was added to each aliquot, followed by 3× volume of sample of cold methanol (MeOH). Samples were vortexed for 5 min and stored at -20° C. overnight. Cold samples were centrifuged at 14,000 g for 10 min, and the supernatant was then transferred to a new tube and 3 mL of acidified H2O (pH 3.5) was added to each sample prior to C18 SPE and performed as previously described (Powell, W. S., Methods Mol Biol. 120, 11-24 (1999)). The methyl formate fractions were collected, dried under nitrogen, and reconstituted in 50 μL MeOH:H2O (1:1, by vol). […] The identity of a component was confirmed using PeakView® software (SCIEX), and quantification was performed using MultiQuantTM software (SCIEX). The quantification of 12,13-diHOME was performed against a standard calibration curve built with 5 points ranging from 0.01 pg/μL to 100 pg/μL. […]

effect of NE treatment added to 12,13-diHOME on FFA-SS-Luc uptake in vitro [3]	SMILES	Ephx1 expression in sWAT [1]	Ephx2 expression in BAT [2]	12,13-diHOME production (serum concentration) [4]
	C[C@H](Cc1ccc2c(c1)OC(C(=O)[O-])(C(=O)[O-])O2)NC[C@H](O)c1cccc(Cl)c1.[Na+].[Na+] [CL316,243]	increased	increased	
no additive effect	NC[C@H](O)c1ccc(O)c(O)c1 [NE, Norepinephrine, reference compound]			induced
